According to article PMC10388327, “Dual Piperidine-Based Histamine H3 and Sigma-1 Receptor Ligands in the Treatment of Nociceptive and Neuropathic Pain” (Journal of Medicinal Chemistry, 2023):
Counter-ions that a name gives are not always drawn. Like-named read-outs stand apart in the source and are kept apart here.

Key:
mice [1] = test: formalin test; format: in vivo; details: Mus musculus, ip
Source text: The formalin test is one of the most useful screening models for testing potentially clinically relevant antinociceptive molecules because of its ease of administration, standardization, and validation with reference drugs.[50] The subcutaneous injection of formalin results in a focal injury that stimulates and then damages sensory endings. Two distinct phases of nociceptive response are associated with the immediate activation of nociceptors and sensitization of spinal reflex circuits during phase I and II responses, respectively.[51]
The procedure used was essentially the same as that described previously.[86],[87] Briefly, 20 μL of 1.5% formalin solution was injected intraplantarly (i.pl.) into the mice right hind paw using a 26-gauge needle. […] The total time (in seconds) spent on licking the injected paw during periods of 0–5 min (early phase, neurogenic) and 15–30 min (late phase, inflammatory) was measured and was considered as an indicator of nociceptive behavior. Before formalin injection, different groups of mice were treated i.p. with the vehicle (10 mL/kg, negative control) and the varying doses of 12 (5, 10, 15, and 30 mg/kg).

CCI-exposed mice [2] = test: CCI of the sciatic nerve, tail flick test; format: in vivo, male albino Swiss CD-1 mice
Procedure: (§1) Behavioral assessment of 12 was performed 14 days after the sciatic nerve injury. Mice were randomly assigned to four treatment groups: vehicle-treated (i.p.) and 12-treated (5, 10, and 15 mg/kg, i.p.). Baseline measurements (basal) for all tests were performed before compound injections, and the results are presented as percentages of the maximal possible effect (% MPE). We observed a significant effect of the tested compound in the von Frey test at all tested time points (30 min: F(3, 26) = 12.38, p < 0,0001; 90 min: F(3, 26) = 12.65, p < 0.0001; 180 min: F(3, 26) = 6.464, p = 0.0020). […] We also observed a significant effect of treatment on the contralateral paw 90 min after injection (F(3, 26) = 5.741, p = 0.0037).
The model of chronic constriction injury (CCI) to the sciatic nerve was established according to Bennett and Xie.[94] The surgical method was performed under isoflurate anesthesia (2% isoflurane in 100% oxygen with a flow of 1.5 L/min).[95] […]
Tail flick latency was measured on the dorsal part of the tail at two-thirds of its length by applying a focused beam of light (thermal stimulus). The time interval between onset of the thermal stimulus and withdrawal of the tail from the beam was recorded; the cutoff latency was 9 s to prevent tissue damage.

mice [3] = test: loperamide-induced antinociception (paw pressure, struggle response latency); format: in vivo, Female CD1 mice
CCI-exposed mice [4] = test: chronic constriction injury (CCI) of the sciatic nerve, von Frey test; format: in vivo, male albino Swiss CD-1 mice
Procedure: as §1
(§2) The model of chronic constriction injury (CCI) to the sciatic nerve was established according to Bennett and Xie.[94] The surgical method was performed under isoflurate anesthesia (2% isoflurane in 100% oxygen with a flow of 1.5 L/min).[95] Below the right hipbone, a small incision was performed, and three ligatures (4/0 silk) around the sciatic nerve were made (with 1 mm spacing) until a brief twitch in the respective hind limb was observed. All mice that underwent the CCI procedure developed hypersensitivity to mechanical and thermal stimuli. Behavioral tests were performed at day 14 after injury. Compound 12 was dissolved in 10% DMSO/10% (2-hydroxypropyl)-β-cyclodextrin/water and administered i.p. at doses 5, 10, and 15 mg/kg (injection volume 10 mL/kg of body weight). The control group received the vehicle (10% DMSO/10% (2-hydroxypropyl)-β-cyclodextrin/water).
Behavioral experiments were performed between 8:00 a.m. and 2:00 p.m. Across the experiments, we compared vehicle-treated mice with 12-treated animals. Experiments were performed 30, 90, and 180 min (von Frey test); 35, 95, and 185 min (cold plate test); and 40, 100, and 190 min (tail flick test) after the vehicle or 12 administration.
The von Frey test was used to measure mechanical hypersensitivity as described in a previous publication.[95] The animals were placed in cages with a wire net floor. The reaction (paw withdrawal, shaking, or licking) of the ipsilateral (Figure 15) and contralateral (Figure S33) paw of CCI-exposed mice to the mechanical stimulator (calibrated nylon monofilaments (0.6–6 g; Stoelting)) in serial increments was observed.

CCI-exposed mice [5] = test: CCI of the sciatic nerve, cold plate test; format: in vivo, male albino Swiss CD-1 mice
Procedure: as §1, §2
Behavioral experiments were performed between 8:00 a.m. and 2:00 p.m. Across the experiments, we compared vehicle-treated mice with 12-treated animals. […]
Sensitivity to noxious thermal stimuli was assessed with the cold plate test (Cold/Hot Plate Analgesia Meter, Columbus Instruments) as previously described.[95] […] The mice were placed on the cold plate, and the time until lifting of the injured paw was recorded.

sigma-1 receptor (σ1R) [6] = molecular target: T1, sigma-1 receptor (σ1R) (Cavia porcellus, UniProt Q60492); test: σ1R radioligand binding ([3H](+)-pentazocine); parameters: species or system guinea pig; details: read-out: σ1R Ki [nM] x̄ [CI 95%]; mean [CI 95%]
T1 construct: The thawed membrane preparation of the guinea pig brain cortex was incubated; from tissue; host or cells: male Dunkin-Hartley guinea pig brain cortex membranes

sigma-1 receptor (σ1R) [7] = test: σ1R radioligand binding ([3H](+)-pentazocine); parameters: species or system guinea pig; details: ratio of σ2R Ki to σ1R Ki
mice [8] = test: spontaneous locomotor activity; format: in vivo
Procedure: (§3) The high sedative activity of analgesics is considered an undesirable property, which may lead to an incorrect or ambiguous interpretation of the in vivo results. Moreover, it may limit the potential clinical application of new drug candidates.
(§4) This test was carried out according to the procedure described elsewhere.[84] The animals were injected (i.p.) with 12 at doses of 5, 15, and 30 mg/kg and placed in the activity cages individually (30 min before the experiment). The number of light-beam crossings was counted in each group during the next 30 min in 10 min intervals.

[9] = spontaneous locomotor activity; format: in vivo, mice; details: mouse, in vivo, ip; estimated; read-out: ED50, decrease of spontaneous locomotor activity
Procedure: as §3, §4

T1 sequence (Q60492 whole entry): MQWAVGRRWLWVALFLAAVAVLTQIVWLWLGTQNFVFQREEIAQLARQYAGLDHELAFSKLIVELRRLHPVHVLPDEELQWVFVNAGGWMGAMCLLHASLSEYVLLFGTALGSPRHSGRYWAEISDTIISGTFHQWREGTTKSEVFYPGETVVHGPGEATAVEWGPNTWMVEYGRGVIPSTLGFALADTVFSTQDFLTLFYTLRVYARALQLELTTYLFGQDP

N#Cc1ccc(-c2ccc(OCCCN3CCC(c4ccncc4)CC3)cc2)cc1 [Compound 12, 4′-(3-(4-(Pyridin-4-yl)piperidin-1-yl)propoxy)-[1,1′-biphenyl]-4-carbonitrile Oxalate]
ED50 (mice [1]; 0–5 min after formalin, read-out: ED50, formalin test phase I (acute phase)): 6.17 mg/kg | ED50 (mice [1]; 15–30 min after formalin, read-out: ED50, formalin test phase II (late phase)): 12.3 mg/kg | analgesic effect, tail flick test (CCI-exposed mice [2]; 100 and 190 min after i.p. injection): only the 10 mg/kg dose had significant analgesic effects | analgesic effect, tail flick test (CCI-exposed mice [2]; 40 min after i.p. injection): significant analgesic action of 12 at 40 min (for doses 5 (p = 0.021) and 10 mg/kg (p < 0.0001)) | in vivo σ1 receptor functional profile (mice [3]; concluded from PRE-084 reversal): σ1 receptor antagonists | effect on loperamide-induced antinociception (mice [3]; i.pl. with loperamide 4 mg/kg s.c., injected paw): dose-dependently (12.5–25 μg) increased the antinociceptive effect of loperamide at the injected paw | effect alone on struggle response latency (mice [3]; i.pl., S1RA 100 μg, 12 25 μg, 450 g pressure): did not have any effect per se | effect on contralateral paw, von Frey test (CCI-exposed mice [4]; 15 mg/kg, 30 and 180 min): reduced the withdrawal threshold 30 and 180 min after injection, although this effect was not statistically significant | effect on contralateral paw, von Frey test (CCI-exposed mice [4]; 15 mg/kg, 90 min): significant effect (p = 0.0056) | effect on contralateral paw, von Frey test (CCI-exposed mice [4]; 5 and 10 mg/kg, all time points): no effects of compound 12 (for doses 5 and 10 mg/kg) on tactile allodynia | analgesic effect, von Frey test, ipsilateral paw (CCI-exposed mice [4]; 90 and 180 min after i.p. injection): only at a dose of 10 mg/kg increased the withdrawal thresholds | analgesic effect, von Frey test, ipsilateral paw (CCI-exposed mice [4]; 30 min after i.p. injection, 5, 10, 15 mg/kg, day 14 after CCI): significant analgesic effects 30 min after injection of 5 (p < 0.0001) and 10 mg/kg (p = 0.0201) | analgesic effect, cold plate test (CCI-exposed mice [5]; 35 min after i.p. injection, 5, 10, 15 mg/kg): analgesic effects of 12 single injection were observed at 35 min for all tested doses | analgesic effect, cold plate test (CCI-exposed mice [5]; 95 min after i.p. injection, 5, 10, 15 mg/kg): antihyperalgesic effect was also observed 95 min after injection | analgesic effect, cold plate test (CCI-exposed mice [5]; 185 min after i.p. injection): significant only for doses 5 (p = 0.0482) and 10 mg/kg (p < 0.0001) | Ki (sigma-1 receptor (σ1R) [6]): 4.5 nM | σ2/σ1 ratio (sigma-1 receptor (σ1R) [7]): 2.2 | influence on spontaneous locomotor activity (sedative effect) (mice [8]; 15 mg/kg i.p.): decreased spontaneous locomotor activity, but the effect was not statistically significant | influence on spontaneous locomotor activity (sedative effect) (mice [8]; 30 mg/kg i.p.): significantly decreased locomotor activity | ED50 at 30 min [9]: 22 mg/kg
